According to patent publication US20250351832A1, “PHYTOCHEMICALS AS BIOPESTICIDES AND BIOSTIMULANTS” (KAY BEE BIO ORGANICS PVT. LTD., priority 2024, published 2025):
Like-named read-outs stand apart in the source and are kept apart here.

Assays:
[1] = test system: Alternaria alternata; assay: In vitro poisoned food technique against fungus (Ex. 20); format: cell-based; conditions: […]
[2] = test system: tomato seedlings; assay: Response of tomato plants, greenhouse growth (Ex. 30); format: in vivo; conditions: for CCI 5th Day / Plant Height 5th Day / Stem Girth 5th Day: 120 h; for CCI 10th Day / Plant Height 10th Day / Root Length % Increase over control / Stem Girth 10th Day: 240 h; for Plant Height % Increase over pre on 10th Day / Stem Girth % Increase over pre on 10th Day / CCI % Increase over pre on 10th Day / Root Length (cm) 10th Day: tomato seedlings, dose 1 ml/gm/lit
[3] = test system: chili seedlings; assay: Response of chili plants, greenhouse growth (Ex. 31); format: in vivo; conditions: for CCI 5th Day / Plant Height (cm) 5th Day: 120 h; for CCI 10th Day / Plant Height (cm) 10th Day / Root Lenght % Increase over control: 240 h; for CCI % Increase over pre on 10th Day / Plant Height % Increase over pre on 10th Day / Root Lenght (cm) 10th Day / Stem Girth % Increase over pre on 10th Day: chili seedlings, dose 1 ml/gm/lit
[4] = test system: Aphid
[5] = test system: Mite; conditions: in vivo
[6] = test system: Spodoptera litura
[7] = test system: Thrips; conditions: 48 h, 1 mL or g/L
[8] = test system: Aphid; conditions: 48 h, 1 mL or g/L
[9] = test system: Mite; conditions: in vivo; remark: listed apart in the source
[10] = test system: Spodoptera litura; conditions: in vivo
[11] = test system: Thrips
[12] = cited from earlier work; for Phytotonic Effect: Table 13, effect on plants, descriptive
[13] = test system: Spodoptera litura; assay: whole plant or invertebrate; conditions: 72 h
[14] = test system: Thrips; assay: whole plant or invertebrate; conditions: in Gossypium hirsutum, 48 h
[15] = test system: Aphid; assay: whole plant or invertebrate; conditions: 48 h
[16] = test system: Helicoverpa armigera; conditions: in vivo
[17] = test system: Helicoverpa armigera; conditions: in vivo; remark: listed apart in the source
[18] = Table 13, descriptive, no test described
[19] = read-out: % Corrected Mortality at 72 Hrs.
[20] = read-out: % Mortality at 72 Hrs.
[21] = read-out: % Corrected Mortality at 48 Hrs.
[22] = read-out: % Mortality at 48 Hrs.

## CC(C)=CCCC(C)=CC=O [Citral]
[1]
  inhibition of growth at 1 mL or g/L: 48.3%
[2]
  CCI Pre: 11.20
  Plant Height Pre: 6.11 cm
  Stem Girth Pre: 1.35 mm
  CCI 5th Day: 13.34
  Plant Height 5th Day: 7.15 cm
  Stem Girth 5th Day: 1.46 mm
  CCI 10th Day: 14.25
  Plant Height 10th Day: 7.85 cm
  Root Length % Increase over control: 25.08%
  Stem Girth 10th Day: 2.12 mm
  Plant Height % Increase over pre on 10th Day: 28.48%
  Stem Girth % Increase over pre on 10th Day: 56.50%
  CCI % Increase over pre on 10th Day: 27.23%
  Root Length (cm) 10th Day: 4.16 cm
[3]
  CCI Pre: 8.60
  Plant Height (cm) Pre: 4.47 cm
  CCI 5th Day: 11.02
  Plant Height (cm) 5th Day: 6.30 cm
  CCI 10th Day: 12.02
  Plant Height (cm) 10th Day: 6.79 cm
  Root Lenght % Increase over control: 14.22%
  CCI % Increase over pre on 10th Day: 39.77%
  Plant Height % Increase over pre on 10th Day: 52.01%
  Root Lenght (cm) 10th Day: 3.13 cm
  Stem Girth % Increase over pre on 10th Day: 38.62%
[4]
  Total No. of dead insect at 48 Hrs.: 6.50
[4]; in vivo
  % Corrected Mortality at 48 Hrs.: 60.00%
  % Mortality at 48 Hrs.: 65.00%
[5]
  % Mortality at 48 Hrs.: 55.00%
[6]; 72 h, 1 mL or g/L
  Total No. of dead insect at 72 Hrs.: 5.50
[7]
  Total No. of dead insect at 48 Hrs.: 5.75
[8]
  Total No. of dead insect at 48 Hrs.: 70.00
[9]
  % Mortality at 48 Hrs.: 55.00%
[10]
  % Corrected Mortality at 72 Hrs.: 50.00%
  % Mortality at 72 Hrs.: 52.50%
[11]
  Total No. of dead insect at 48 Hrs.: 57.50
[11]; in vivo
  % Corrected Mortality at 48 Hrs.: 52.78%
[12]; [18]
  Acaricidal Activity - Mode of action: Repelling and killing
  Antifungal Activity - Mode of action: Inhibited the mycelial
  Antioxidant Activity - Mode of action: Induced the overexpression
  Bactericidal Activity - Mode of action: High mortality against
  Insecticidal Activities - Mode of action: Repellent and Antifeedant
  Nematicidal Activity - Mode of action: Strong Nematicidal activity
  Virucidal Activity - Mode of action: Increases plant disease
[12]
  Phytotonic Effect: Trigger
[13]; [19]
  mortality at 1 mL or g/L: 52.6%
[13]; [20]
  mortality at 1 mL or g/L: 55%
[14]; [21]
  mortality at 1 mL or g/L: 51.4%
[14]; [22]
  mortality at 1 mL or g/L: 57.5%
[15]; [21]
  mortality at 1 mL or g/L: 64.7%
[15]; [22]
  mortality at 1 mL or g/L: 70%

## Cc1ccc(C(C)C)cc1 [p-Cymene]
[1]
  inhibition of growth at 1 mL or g/L: 34.1%
[2]
  CCI Pre: 12.58
  Plant Height Pre: 6.12 cm
  Stem Girth Pre: 1.35 mm
  CCI 5th Day: 14.52
  Plant Height 5th Day: 7.24 cm
  Stem Girth 5th Day: 1.82 mm
  CCI 10th Day: 15.68
  Plant Height 10th Day: 7.84 cm
  Root Length % Increase over control: 21.38%
  Stem Girth 10th Day: 2.06 mm
  Plant Height % Increase over pre on 10th Day: 28.10%
  Stem Girth % Increase over pre on 10th Day: 52.59%
  CCI % Increase over pre on 10th Day: 24.64%
  Root Length (cm) 10th Day: 4.04 cm
[3]
  CCI Pre: 9.30
  Plant Height (cm) Pre: 4.29 cm
  CCI 5th Day: 11.47
  Plant Height (cm) 5th Day: 6.13 cm
  CCI 10th Day: 13.48
  Plant Height (cm) 10th Day: 6.48 cm
  Root Lenght % Increase over control: 15.10%
  CCI % Increase over pre on 10th Day: 44.95%
  Plant Height % Increase over pre on 10th Day: 51.05%
  Root Lenght (cm) 10th Day: 3.15 cm
  Stem Girth % Increase over pre on 10th Day: 40.29%
[4]
  Total No. of dead insect at 48 Hrs.: 6.00
[4]; in vivo
  % Corrected Mortality at 48 Hrs.: 54.29%
[16]
  % Corrected Mortality at 72 Hrs.: 65.00%
  % Mortality at 72 Hrs.: 65.00%
[6]; Spodoptera litura on castor leaves, dose 1 ml/gm/lit., 10 insects/treatment, 72 hrs after application
  Total No. of dead insect at 72 Hrs.: 7.25
[7]
  Total No. of dead insect at 48 Hrs.: 6.00
[8]
  Total No. of dead insect at 48 Hrs.: 60.00
[17]
  % Corrected Mortality at 72 Hrs.: 65.00%
  % Mortality at 72 Hrs.: 65.00%
[10]
  % Corrected Mortality at 72 Hrs.: 68.42%
  % Mortality at 72 Hrs.: 70.00%
[11]
  Total No. of dead insect at 48 Hrs.: 57.50
[11]; in vivo
  % Corrected Mortality at 48 Hrs.: 52.78%
  % Mortality at 48 Hrs.: 57.50%
[12]; [18]
  Acaricidal Activity - Mode of action: Showed mortality against
  Bactericidal Activity - Mode of action: Strong anti-bacterial
  Insecticidal Activities - Mode of action: High mortality against
  Nematicidal Activity - Mode of action: Effective in reducing
[12]
  Phytotonic Effect: Trigger plant
[13]; [19]
  mortality at 1 mL or g/L: 71%
[13]; [20]
  mortality at 1 mL or g/L: 72.5%
[14]; [21]
  mortality at 1 mL or g/L: 54.3%
[14]; [22]
  mortality at 1 mL or g/L: 60%
[15]; [21]
  mortality at 1 mL or g/L: 52.9%
[15]; [22]
  mortality at 1 mL or g/L: 60%
